Test results taken from patent publication US8575157B2, “Cyclic inhibitors of 11beta-hydroxysteroid dehydrogenase 1” (Vitae Pharmaceuticals, Inc., priority 2010, dated 2013).
Read-outs that look alike come from different tables or passages of the source.

Key:
human CYP2C9 = human CYP2C9 (Homo sapiens (Human), UniProt P11712); assay: CYP2C9 inhibition (Invitrogen kit, OOMR fluorogenic substrate), Biological Test Example 9; type: in vitro ADME; settings: read-out: Biological Test Example 9 CYP2C9 IC50
11β-HSD1 = 11β-HSD1 (Homo sapiens (Human), UniProt P28845); type: biochemical; settings: human liver microsomes, 100% indicates no inhibition, zero or below zero indicates complete inhibition
[1] = molecular target: human recombinant cytochrome P450 2C19 (Homo sapiens (Human), UniProt P33261); assay: CYP2C19 inhibition, Biological Test Example 8; type: in vitro ADME; settings: read-out: Biological Test Example 8 CYP2C19, IC50
[2] = molecular target: human recombinant cytochrome P450 2C9 (Homo sapiens (Human), UniProt P11712); assay: CYP2C9 inhibition ([O-methyl-14C]-Naproxen), Biological Test Example 7; type: in vitro ADME
[3] = molecular target: human recombinant cytochrome P450 3A4 (Homo sapiens (Human), UniProt P08684); assay: CYP3A4 inhibition, Biological Test Example 6; type: in vitro ADME
[4] = fraction unbound in human plasma (equilibrium dialysis), Biological Test Example 5; type: in vitro ADME; settings: fraction unbound in human plasma
[5] = Invitrogen kit, OOMR fluorogenic substrate
[6] = human recombinant CYP2C19, [N-methyl-14C]-Diazepam

human recombinant cytochrome P450 3A4, sequence (P08684 whole entry): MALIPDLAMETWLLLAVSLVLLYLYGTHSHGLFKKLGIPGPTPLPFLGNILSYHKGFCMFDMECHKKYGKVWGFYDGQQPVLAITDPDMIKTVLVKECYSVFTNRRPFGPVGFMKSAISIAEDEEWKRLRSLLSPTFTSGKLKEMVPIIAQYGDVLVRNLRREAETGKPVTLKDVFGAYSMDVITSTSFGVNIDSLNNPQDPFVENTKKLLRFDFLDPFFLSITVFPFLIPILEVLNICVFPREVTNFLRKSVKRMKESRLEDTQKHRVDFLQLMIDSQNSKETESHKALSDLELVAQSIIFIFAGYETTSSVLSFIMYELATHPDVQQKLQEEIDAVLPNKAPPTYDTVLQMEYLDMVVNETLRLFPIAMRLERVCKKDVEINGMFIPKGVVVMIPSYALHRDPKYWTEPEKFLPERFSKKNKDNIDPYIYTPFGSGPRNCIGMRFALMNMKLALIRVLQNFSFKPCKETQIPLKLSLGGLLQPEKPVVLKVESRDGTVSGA
human recombinant cytochrome P450 2C9, sequence (P11712 whole entry): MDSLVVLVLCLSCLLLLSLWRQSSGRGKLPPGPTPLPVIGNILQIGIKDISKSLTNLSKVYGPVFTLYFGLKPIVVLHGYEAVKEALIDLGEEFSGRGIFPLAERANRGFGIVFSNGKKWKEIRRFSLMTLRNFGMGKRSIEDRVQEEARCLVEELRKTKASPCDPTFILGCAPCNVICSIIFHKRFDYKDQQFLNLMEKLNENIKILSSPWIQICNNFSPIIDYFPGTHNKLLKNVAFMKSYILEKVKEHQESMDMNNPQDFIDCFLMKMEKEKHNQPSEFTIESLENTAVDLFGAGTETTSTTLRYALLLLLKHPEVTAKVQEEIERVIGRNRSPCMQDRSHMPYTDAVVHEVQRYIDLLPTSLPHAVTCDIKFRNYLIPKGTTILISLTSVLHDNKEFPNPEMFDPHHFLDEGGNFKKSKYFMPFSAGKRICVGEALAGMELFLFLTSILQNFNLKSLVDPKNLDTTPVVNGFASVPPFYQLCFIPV
human CYP2C9, sequence (P11712 whole entry): as above
11β-HSD1, sequence (P28845 whole entry): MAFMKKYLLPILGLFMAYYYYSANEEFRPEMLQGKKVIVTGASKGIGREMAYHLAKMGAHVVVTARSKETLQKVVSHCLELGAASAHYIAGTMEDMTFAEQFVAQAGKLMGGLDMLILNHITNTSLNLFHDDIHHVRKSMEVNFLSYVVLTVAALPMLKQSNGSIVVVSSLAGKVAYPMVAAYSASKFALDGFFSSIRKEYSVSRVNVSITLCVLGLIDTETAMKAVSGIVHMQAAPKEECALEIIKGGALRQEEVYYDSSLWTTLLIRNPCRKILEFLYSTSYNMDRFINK
human recombinant cytochrome P450 2C19, sequence (P33261 whole entry): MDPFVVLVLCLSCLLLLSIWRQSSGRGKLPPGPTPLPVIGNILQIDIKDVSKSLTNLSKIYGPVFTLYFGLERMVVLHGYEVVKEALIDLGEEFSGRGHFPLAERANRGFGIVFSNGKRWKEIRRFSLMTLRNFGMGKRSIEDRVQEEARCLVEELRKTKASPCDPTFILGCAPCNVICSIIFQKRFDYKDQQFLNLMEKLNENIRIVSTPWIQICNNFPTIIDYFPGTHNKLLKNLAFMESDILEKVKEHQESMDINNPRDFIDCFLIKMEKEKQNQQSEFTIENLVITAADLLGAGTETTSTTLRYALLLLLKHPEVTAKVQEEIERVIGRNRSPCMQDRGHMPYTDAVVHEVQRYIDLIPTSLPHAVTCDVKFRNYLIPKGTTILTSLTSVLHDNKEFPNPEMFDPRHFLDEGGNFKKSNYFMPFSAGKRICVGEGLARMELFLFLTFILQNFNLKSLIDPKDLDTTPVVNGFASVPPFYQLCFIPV

Compound C[C@@H](c1ccc(-c2ccc(=O)n(C)c2)cc1)N1CC[C@](CC(C)(C)N)(c2ccccc2)OC1=O [Example 7, (S)-6-(2-amino-2-methylpropyl)-3-((S)-1-(4-(1-methyl-6-oxo-1,6-dihydropyridin-3-yl)phenyl)ethyl)-6-phenyl-1,3-oxazinan-2-one] has an IC50 (human CYP2C9; [5]) of 4 µM.
With CC(CO)Cn1ccc(-c2ccc([C@H](C)N3CC[C@](CC(C)(C)O)(c4ccccc4)OC3=O)cc2)cc1=O (stereo partly drawn) [Example 82, (S)-6-(2-Hydroxy-2-methyl-propyl)-3-((S)-1-{4-[1-(3-hydroxy-2-methyl-propyl)-2-oxo-1,2-dihydro-pyridin-4-yl]-phenyl}-ethyl)-6-phenyl-[1,3]oxazinan-2-one] the “Average % control inhibition at 100 nM” value (11β-HSD1) was −12 % control.
In the case of C[C@@H](c1ccc(-c2cc[nH]c(=O)c2)cc1)N1CC[C@](CC(C)(C)C#N)(c2ccccc2)OC1=O [Example 14, 2,2-dimethyl-3-((R)-2-oxo-3-((S)-1-(4-(2-oxo-1,2-dihydropyridin-4-yl)phenyl)ethyl)-6-phenyl-1,3-oxazinan-6-yl)propanenitrile], the IC50 [1, 6] is reported as 6.4 µM, the IC50 ([2]; human recombinant CYP2C9) is reported as 25.9 µM and the IC50 (human CYP2C9; [5]) is reported as 24.6 µM. It also gave an IC50 ([3]; human recombinant CYP3A4) of 19.7 µM.
C[C@@H](c1ccc(-c2ccc(=O)n(C)c2)cc1)N1CC[C@](CC(C)(C)C(N)=O)(c2ccccc2)OC1=O [Example 6, 2,2-dimethyl-3-((R)-3-((S)-1-(4-(1-methyl-6-oxo-1,6-dihydropyridin-3-yl)phenyl)ethyl)-2-oxo-6-phenyl-1,3-oxazinan-6-yl)propanamide] showed an IC50 [1, 6] of 8.6 µM, an IC50 ([2]; human recombinant CYP2C9) of 2.3 µM and an IC50 (human CYP2C9; [5]) of 5 µM. The IC50 ([3]; human recombinant CYP3A4) was 4.4 µM.
C[C@@H](c1ccc(-c2ccn(C)c(=O)c2)cc1)N1CC[C@](CC(C)(C)NS(C)(=O)=O)(c2ccccc2)OC1=O [Example 13, N-(2-methyl-1-((S)-3-((S)-1-(4-(1-methyl-2-oxo-1,2-dihydropyridin-4-yl)phenyl)ethyl)-2-oxo-6-phenyl-1,3-oxazinan-6-yl)propan-2-yl)methanesulfonamide] gave an IC50 [1, 6] of under 0.4 µM, an IC50 ([2]; human recombinant CYP2C9) of 5.6 µM and an IC50 (human CYP2C9; [5]) of 7.3 µM. For the same compound, the IC50 ([3]; human recombinant CYP3A4) was 4.4 µM.
In the case of C[C@@H](c1ccc(-c2ccn(CC(C)(C)CO)c(=O)c2)cc1)N1CC[C@](CC(C)(C)O)(c2ccccc2)OC1=O [Example 90, 3-((S)-1-{4-[1-(3-Hydroxy-2,2-dimethyl-propyl)-2-oxo-1,2-dihydro-pyridin-4-yl]-phenyl}-ethyl)-(S)-6-(2-hydroxy-2-methyl-propyl)-6-phenyl-[1,3]oxazinan-2-one], the “Average % control inhibition at 100 nM” value (11β-HSD1) is reported as 4 % control.
Work on CC(=O)NC(C)(C)C[C@]1(c2ccccc2)CCN([C@@H](C)c2ccc(-c3ccc(=O)n(C)c3)cc2)C(=O)O1 [Example 8, N-(2-methyl-1-((S)-3-((S)-1-(4-(1-methyl-6-oxo-1,6-dihydropyridin-3-yl)phenyl)ethyl)-2-oxo-6-phenyl-1,3-oxazinan-6-yl)propan-2-yl)acetamide] yielded an IC50 [1, 6] of […], an IC50 ([2]; human recombinant CYP2C9) of […] and an IC50 (human CYP2C9; [5]) of 3 µM. It also gave an IC50 ([3]; human recombinant CYP3A4) of […].
For COC[C@]1(c2ccccc2)CCN([C@@H](C)c2ccc(-c3ccn(C)c(=O)c3)cc2)C(=O)O1 [Example 78, (R)-6-Methoxymethyl-3-{(S)-1-[4-(1-methyl-2-oxo-1,2-dihydro-pyridin-4-yl)-phenyl]-ethyl}-6-phenyl-[1,3]oxazinan-2-one], the “Average % control inhibition at 100 nM” value (11β-HSD1) was 58 % control.
In the case of C[C@@H](c1ccc(-c2cc[nH]c(=O)c2)cc1)N1CC[C@](CC(C)(C)O)(c2ccccc2)OC1=O [Example 2, (S)-6-(2-hydroxy-2-methylpropyl)-3-((S)-1-(4-(2-oxo-1,2-dihydropyridin-4-yl)phenyl)ethyl)-6-phenyl-1,3-oxazinan-2-one], the IC50 (human CYP2C9; [5]) is reported as 1.4 µM.
In the case of C[C@@H](c1ccc(-c2ccn(CC(C)(C)O)c(=O)c2)cc1)N1CC[C@](CC(C)(C)O)(c2ccccc2)OC1=O [Example 80, (S)-6-(2-Hydroxy-2-methyl-propyl)-3-((S)-1-{4-[1-(2-hydroxy-2-methyl-propyl)-2-oxo-1,2-dihydro-pyridin-4-yl]-phenyl}-ethyl)-6-phenyl-[1,3]oxazinan-2-one], the IC50 [2] is reported as over 50 µM, the IC50 [3] is reported as over 50 µM and the “Average % control inhibition at 100 nM” value (11β-HSD1) is reported as 37 % control.
For C[C@@H](c1ccc(-c2cc(=O)n(C)cc2F)cc1)N1CC[C@](CC(C)(C)O)(c2ccccc2)OC1=O [Example 79, 3-{(S)-1-[4-(5-Fluoro-1-methyl-2-oxo-1,2-dihydro-pyridin-4-yl)-phenyl]-ethyl}-(S)-6-(2-hydroxy-2-methyl-propyl)-6-phenyl-[1,3]oxazinan-2-one], the IC50 [1] was over 50 µM, the IC50 [2] was over 50 µM and the IC50 [3] was over 50 µM. The “Average % control inhibition at 100 nM” value (11β-HSD1) was 15 % control.
Work on CCn1cc(-c2ccc([C@H](C)N3CC[C@](CC(C)(C)O)(c4ccccc4)OC3=O)cc2)ccc1=O [Example 53, (S)-3-((S)-1-(4-(1-ethyl-6-oxo-1,6-dihydropyridin-3-yl)phenyl)ethyl)-6-(2-hydroxy-2-methylpropyl)-6-phenyl-1,3-oxazinan-2-one] yielded an IC50 [1] of over 50 µM, an IC50 [2] of over 50 µM and an IC50 (human CYP2C9) of 30 µM. For the same compound, the IC50 [3] was over 50 µM.
For C[C@@H](c1ccc(-c2ccc(=O)n(CC3CC3)c2)cc1)N1CC[C@](CC(C)(C)O)(c2ccccc2)OC1=O [Example 76, 3-{(S)-1-[4-(1-Cyclopropylmethyl-6-oxo-1,6-dihydro-pyridin-3-yl)-phenyl]-ethyl}-(S)-6-(2-hydroxy-2-methyl-propyl)-6-phenyl-[1,3]oxazinan-2-one], the “Average % control inhibition at 100 nM” value (11β-HSD1) was 17 % control.
Compound C[C@@H](c1ccc(-c2ccc(=O)n(C(F)F)c2)cc1)N1CC[C@](CC(C)(C)O)(c2ccccc2)OC1=O [Example 4, (S)-3-((S)-1-(4-(1-(difluoromethyl)-6-oxo-1,6-dihydropyridin-3-yl)phenyl)ethyl)-6-(2-hydroxy-2-methylpropyl)-6-phenyl-1,3-oxazinan-2-one] has an IC50 (human CYP2C9; [5]) of 5.1 µM.
In the case of CC[C@@H](c1ccc(-c2ccn(C)c(=O)c2)cc1)N1CC[C@](CC(C)(C)O)(c2ccccc2)OC1=O [Example 55, (S)-6-(2-hydroxy-2-methylpropyl)-3-((S)-1-(4-(1-methyl-2-oxo-1,2-dihydropyridin-4-yl)phenyl)propyl)-6-phenyl-1,3-oxazinan-2-one], the “Biological Test Example 5 (%)” value [4] is reported as 7.1%.
In the case of C[C@@H](c1ccc(-c2ccc(=O)n(C)c2)cc1)N1CC[C@](CC(C)(C)O)(c2ccc(F)cc2)OC1=O [Example 32, (S)-6-(4-fluorophenyl)-6-(2-hydroxy-2-methylpropyl)-3-((S)-1-(4-(1-methyl-6-oxo-1,6-dihydropyridin-3-yl)phenyl)ethyl)-1,3-oxazinan-2-one], the IC50 [1] is reported as over 50 µM, the IC50 [2] is reported as over 50 µM and the IC50 [3] is reported as over 50 µM.
C[C@@H](c1ccc(-c2ccc(=O)[nH]c2)cc1)N1CC[C@](CC(C)(C)C#N)(c2ccc(F)cc2)OC1=O [Example 15, 3-((R)-6-(4-fluorophenyl)-2-oxo-3-((S)-1-(4-(6-oxo-1,6-dihydropyridin-3-yl)phenyl)ethyl)-1,3-oxazinan-6-yl)-2,2-dimethylpropanenitrile] gave an IC50 [1, 6] of under 0.4 µM, an IC50 ([2]; human recombinant CYP2C9) of 7.7 µM and an IC50 (human CYP2C9; [5]) of 9.5 µM. For the same compound, the IC50 ([3]; human recombinant CYP3A4) was 3.1 µM.
For COCC(C)Cn1ccc(-c2ccc([C@H](C)N3CC[C@](CC(C)(C)O)(c4ccccc4)OC3=O)cc2)cc1=O (stereo partly drawn) [Example 81, (S)-6-(2-Hydroxy-2-methyl-propyl)-3-((S)-1-{4-[1-(3-methoxy-2-methyl-propyl)-2-oxo-1,2-dihydro-pyridin-4-yl]-phenyl}-ethyl)-6-phenyl-[1,3]oxazinan-2-one], the “Average % control inhibition at 100 nM” value (11β-HSD1) was 11 % control.
In the case of COC(C)(C)Cn1ccc(-c2ccc([C@H](C)N3CC[C@](CC(C)(C)O)(c4ccccc4)OC3=O)cc2)cc1=O [Example 83, (S)-6-(2-Hydroxy-2-methyl-propyl)-3-(1-{4-[1-(2-methoxy-2-methyl-propyl)-2-oxo-1,2-dihydro-pyridin-4-yl]-phenyl}-ethyl)-6-phenyl-[1,3]oxazinan-2-one], the “Average % control inhibition at 100 nM” value (11β-HSD1) is reported as 54 % control.
In the case of CC[C@@H](c1ccc(-c2ccc(=O)n(CC)c2)cc1)N1CC[C@](CC(C)(C)O)(c2ccccc2)OC1=O [Example 52, (S)-3-((S)-1-(4-(1-ethyl-6-oxo-1,6-dihydropyridin-3-yl)phenyl)propyl)-6-(2-hydroxy-2-methylpropyl)-6-phenyl-1,3-oxazinan-2-one], the “Biological Test Example 5 (%)” value [4] is reported as 9.0%.
With C[C@@H](c1ccc(-c2ccn(CC(F)(F)F)c(=O)c2)cc1)N1CC[C@](CC(C)(C)O)(c2ccccc2)OC1=O [Example 66, (S)-6-(2-hydroxy-2-methylpropyl)-3-((S)-1-(4-(2-oxo-1-(2,2,2-trifluoroethyl)-1,2-dihydropyridin-4-yl)phenyl)ethyl)-6-phenyl-1,3-oxazinan-2-one] the “Biological Test Example 5 (%)” value [4] was 5.5%.
